“And” between values parts separate entries of the source, which are not always exact repeats. Equal entries are not always repeated. Toxic doses and inconclusive results are not listed. Rule for the calls: active = survival T/C of 150% or more; inactive = T/C below 125% in these data.
Tested on: P388 leukemia ip, CD2F1 mice, survival T/C
Assay: NCI In Vivo Anticancer Drug Screen. Data for tumor model P388 Leukemia (intraperitoneal) in CD2F1 (CDF1) mice
Settings: endpoint: median survival time, higher = longer survival
How it was run: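 Mice carrying the transplanted tumor received test compound or vehicle. Survival was recorded in each group, and the value is the treated-group measurement divided by that of the vehicle-treated control group.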

[1] = dose: 100.0 mg/kg/injection, schedule: Q01DX009 (ip), vehicle: saline with Tween-80
[2] = dose: 100.0 mg/kg/injection, schedule: Q04DX003 (ip), vehicle: saline with Tween-80
[3] = dose: 200.0 mg/kg/injection, schedule: Q01DX009 (ip), vehicle: saline with Tween-80
[4] = dose: 200.0 mg/kg/injection, schedule: Q04DX003 (ip), vehicle: saline with Tween-80
[5] = dose: 400.0 mg/kg/injection, schedule: Q04DX003 (ip), vehicle: saline with Tween-80
[6] = dose: 25.0 mg/kg/injection, schedule: Q01DX009 (ip), vehicle: saline with Tween-80
[7] = dose: 50.0 mg/kg/injection, schedule: Q01DX009 (ip), vehicle: saline with Tween-80
[8] = dose: 12.5 mg/kg/injection, schedule: Q01DX009 (ip), vehicle: saline
[9] = dose: 25.0 mg/kg/injection, schedule: Q01DX009 (ip), vehicle: saline
[10] = dose: 50.0 mg/kg/injection, schedule: Q01DX009 (ip), vehicle: saline
[11] = dose: 50.0 mg/kg/injection, schedule: Q01DX005 (ip), vehicle: Klucel (hydroxypropylcellulose) (HPC)
[12] = dose: 100.0 mg/kg/injection, schedule: Q01DX005 (ip), vehicle: Klucel (hydroxypropylcellulose) (HPC)
[13] = dose: 200.0 mg/kg/injection, schedule: Q01DX005 (ip), vehicle: Klucel (hydroxypropylcellulose) (HPC)
[14] = dose: 50.0 mg/kg/injection, schedule: Q01DX005 (ip), vehicle: saline with Tween-80
[15] = dose: 100.0 mg/kg/injection, schedule: Q01DX005 (ip), vehicle: saline with Tween-80
[16] = dose: 200.0 mg/kg/injection, schedule: Q01DX005 (ip), vehicle: saline with Tween-80
[17] = dose: 60.0 mg/kg/injection, schedule: Q01DX005 (ip), vehicle: Klucel (hydroxypropylcellulose) (HPC)
[18] = dose: 120.0 mg/kg/injection, schedule: Q01DX005 (ip), vehicle: Klucel (hydroxypropylcellulose) (HPC)
[19] = dose: 6.25 mg/kg/injection, schedule: Q01DX009 (ip), vehicle: saline with Tween-80
[20] = dose: 12.5 mg/kg/injection, schedule: Q01DX009 (ip), vehicle: saline with Tween-80
[21] = dose: 60.0 mg/kg/injection, schedule: Q01DX005 (ip), vehicle: saline with Tween-80
[22] = dose: 120.0 mg/kg/injection, schedule: Q01DX005 (ip), vehicle: saline with Tween-80

Measured: T/C

CCCN=c1c2c(OC)c(OC)ccc2cc2n1CCc1cc3c(cc1-2)OCO3
inactive: dose: 0.63 mg/kg/injection, schedule: Q01DX009 (ip), vehicle: water 110 % of control | dose: 1.25 mg/kg/injection, schedule: Q01DX009 (ip), vehicle: water 99 % of control | dose: 2.5 mg/kg/injection, schedule: Q01DX009 (ip), vehicle: water 110 % of control | dose: 5.0 mg/kg/injection, schedule: Q01DX009 (ip), vehicle: water 110 % of control | dose: 10.0 mg/kg/injection, schedule: Q01DX009 (ip), vehicle: water 115 % of control

CCCC1(CCC)NC(=O)N(CC(=O)OCC)C1=O
inactive: dose: 100.0 mg/kg/injection, schedule: Q01DX001 (ip), vehicle: saline 105 % of control | dose: 200.0 mg/kg/injection, schedule: Q01DX001 (ip), vehicle: saline 110 % of control

COc1cccc(-n2c(SC)nccc2=O)c1
inactive: dose: 100.0 mg/kg/injection, schedule: Q04DX003 (ip), vehicle: Klucel (hydroxypropylcellulose) (HPC) 100 % of control | dose: 200.0 mg/kg/injection, schedule: Q04DX003 (ip), vehicle: Klucel (hydroxypropylcellulose) (HPC) 101 % of control | dose: 400.0 mg/kg/injection, schedule: Q04DX003 (ip), vehicle: Klucel (hydroxypropylcellulose) (HPC) 100 % of control

Fc1cccc(CSC(=S)Nc2ccc(Cl)c(C(F)(F)F)c2)c1
inactive: dose: 50.0 mg/kg/injection, schedule: Q01DX009 (ip), vehicle: suspension in saline 98 % of control | dose: 100.0 mg/kg/injection, schedule: Q01DX009 (ip), vehicle: suspension in saline 93 % of control | dose: 200.0 mg/kg/injection, schedule: Q01DX009 (ip), vehicle: suspension in saline 98 % of control

CC1CCC(n2cnc3c(=S)nc[nH]c32)O1 (centres undefined)
inactive: dose: 66.0 mg/kg/injection, schedule: Q01DX009 (ip), vehicle: saline with Tween-80 104 % of control | [1] 113 % of control | [2] 109 % of control | dose: 150.0 mg/kg/injection, schedule: Q01DX009 (ip), vehicle: saline with Tween-80 90 % of control | [3] 100 % of control | [4] 118 % of control | [5] 118 % of control

CCCCCCCCCCCCCCCCC/C=C1\CC(=O)OC1=O
inactive: [6] 103 % of control | [7] 97 % of control | [1] 89 % of control

CCOP(=O)(OCC)C(C)NC(=O)C(C)NC(=O)c1cn(CC)c2nc(C)ccc2c1=O (centres undefined)
inactive: dose: 100.0 mg/kg/injection, schedule: Q04DX002 (ip), vehicle: saline 97 % of control | dose: 200.0 mg/kg/injection, schedule: Q04DX002 (ip), vehicle: saline 97 % of control | dose: 400.0 mg/kg/injection, schedule: Q04DX002 (ip), vehicle: saline 95 % of control

O=c1oc2c(c(N(c3ccccc3)c3ccccc3)c1Cl)CSc1ccccc1-2
inactive: [2] 90 % of control

CC1(C)OCC(C2OC3OC(C)(C)OC3C2OP(=O)(N2CC2)N2CC2)O1 (centres undefined)
inactive: [7] 112 % of control | [1] 105 % of control

CCC1C[N+]2(C)CCc3cc(OC)c(OC)cc3C2CC1=O (centres undefined)
inactive: [8] 94 % of control | [9] 93 % of control | [7] 106 % of control | [10] 100 % of control

O=C(O)c1cnccc1C(=O)c1ccccc1
inactive: [11] 101 % of control | [12] 101 % of control | [13] 92 % of control

O=C(CCl)N1c2ccc3ccccc3c2Sc2ccc3ccccc3c21
inactive: dose: 6.25 mg/kg/injection, schedule: Q01DX005 (ip), vehicle: saline with Tween-80 96 % of control | dose: 12.5 mg/kg/injection, schedule: Q01DX005 (ip), vehicle: saline with Tween-80 101 % of control | dose: 25.0 mg/kg/injection, schedule: Q01DX005 (ip), vehicle: saline with Tween-80 95 % of control | [14] 98 % of control | [15] 97 % of control | [16] 105 % of control

O=C(N=c1sc2ccccc2s1)N=c1sc2ccccc2s1
inactive: dose: 30.0 mg/kg/injection, schedule: Q01DX005 (ip), vehicle: Klucel (hydroxypropylcellulose) (HPC) 99 % of control | [17] 86 % of control and 91 % of control | [18] 95 % of control

C1N2CN3CN1CN(C2)C3 (tested in a mixture with another compound)
inactive: [10] 107 % of control | dose: 100.0 mg/kg/injection, schedule: Q01DX009 (ip), vehicle: saline 101 % of control | dose: 200.0 mg/kg/injection, schedule: Q01DX009 (ip), vehicle: saline 107 % of control

CCn1c(=NC(=O)c2ccccc2O)ccn1C
inactive: [17] 95 % of control | [18] 90 % of control | dose: 240.0 mg/kg/injection, schedule: Q01DX005 (ip), vehicle: Klucel (hydroxypropylcellulose) (HPC) 88 % of control

O=C1C(=O)C(Cl)=C(Cl)C(Cl)=C1Cl
inactive: [19] 100 % of control and 95 % of control | [20] 93 % of control | [6] 100 % of control and 98 % of control

Nc1nc(=O)nc2[nH]c3c4cccc5cccc(c3nc12)c54 (tested in a mixture with another compound)
inactive: dose: 12.5 mg/kg/injection, schedule: Q01DX005 (ip), vehicle: Klucel (hydroxypropylcellulose) (HPC) 92 % of control and 98 % of control | dose: 25.0 mg/kg/injection, schedule: Q01DX005 (ip), vehicle: Klucel (hydroxypropylcellulose) (HPC) 101 % of control and 104 % of control | [11] 100 % of control and 106 % of control and 112 % of control | [12] 116 % of control

O=C1C(Cl)=C(NCC2CCCN3CCCCC23)C(=O)c2ccccc21 (centres undefined)
inactive: dose: 50.0 mg/kg/injection, schedule: Q01DX005 (ip), vehicle: saline 113 % of control | dose: 100.0 mg/kg/injection, schedule: Q01DX005 (ip), vehicle: saline 117 % of control

Cc1cccc(Cl)c1NCCN1CCCC1
inactive: dose: 15.0 mg/kg/injection, schedule: Q01DX005 (ip), vehicle: saline with Tween-80 103 % of control | dose: 30.0 mg/kg/injection, schedule: Q01DX005 (ip), vehicle: saline with Tween-80 101 % of control | [21] 106 % of control and 108 % of control

CC1(C2CCC3(C)OC3C2)CO1 (centres undefined)
inactive: [14] 100 % of control | [15] 100 % of control | [16] 100 % of control

O=C(O)C(=O)O.O=C(O)C(=O)O.OO.OO.[Nb]
inactive: [8] 98 % of control

Cc1cc(COCCN(C)C)on1
inactive: [21] 97 % of control | [22] 104 % of control

COc1cc2c(cc1OC)C(Cc1ccccc1)=NCC2
inactive: [6] 100 % of control | [7] 95 % of control | [1] 90 % of control

CO[C@H]1/C=C/O[C@@]2(C)Oc3c(C)c(O)c4c(O)c(c(/C=N/N5CCNCC5)c(O)c4c3C2=O)NC(=O)/C(C)=C\C=C\[C@H](C)[C@H](O)[C@@H](C)[C@@H](O)[C@@H](C)C(OC(C)=O)[C@@H]1C (some centres undefined)
inactive: [1] 95 % of control | [2] 91 % of control | [3] 104 % of control | [4] 91 % of control | [5] 100 % of control

C/C=C/C=C\C(=O)O
inactive: dose: 6.25 mg/kg/injection, schedule: Q01DX009 (ip), vehicle: saline 102 % of control | [8] 93 % of control | [9] 93 % of control | [3] 104 % of control

CCCCCCCCCCCCCC[n+]1ccc(C(N)=O)cc1
inactive: [19] 113 % of control | [20] 109 % of control | [6] 100 % of control

CCCN(CCC)CCCCCO
inactive: dose: 50.0 mg/kg/injection, schedule: Q04DX003 (ip), vehicle: saline with Tween-80 104 % of control | [2] 100 % of control | [4] 100 % of control

Cc1cc2c(cc1C)NC1=C(N2)OC(c2c[nH]c3ccc(COc4ccccc4)cc23)C1=O (centres undefined)
inactive: [21] 92 % of control | [22] 90 % of control | dose: 240.0 mg/kg/injection, schedule: Q01DX005 (ip), vehicle: saline with Tween-80 92 % of control

O=C1c2ccccc2-n2c1nc1ccc([N+](=O)[O-])cc1c2=O
inactive: [11] 103 % of control | [12] 97 % of control | [13] 94 % of control | dose: 400.0 mg/kg/injection, schedule: Q04DX002 (ip), vehicle: Klucel (hydroxypropylcellulose) (HPC) 96 % of control

From PubChem BioAssay AID330 (DTP/NCI, 2004)
